{"source": "patent US10300051B2", "about": "“Cyclopropylamines as LSD1 inhibitors” (priority 2014, dated 2019)"}
{"biological_target": "LSD-1 enzyme (Homo sapiens (Human), UniProt O60341)", "format": "biochemical", "settings": "1 nM LSD-1 enzyme, 1 hour preincubation at 25° C., Biotin-labeled Histone H3 peptide substrate", "experimental": "Example A: LSD1 Histone Demethylase Biochemical Assay\nLANCE LSD1/KDM1A demethylase assay—10 μL of 1 nM LSD-1 enzyme (ENZO BML-SE544-0050) in the assay buffer (50 mM Tris, pH 7.5, 0.01% Tween-20, 25 mM NaCl, 5 mM DTT) were preincubated for 1 hour at 25° C. with 0.8 μL compound/DMSO dotted in black 384 well polystyrene plates. […] Reactions were stopped by addition of 10 μL 1× LANCE Detection Buffer (PerkinElmer CR97-100) supplemented with 1.5 nM Eu-anti-unmodified H3K4 Antibody (PerkinElmer TRF0404), and 225 nM LANCE Ultra Streptavidin (PerkinElmer TRF102) along with 0.9 mM Tranylcypromine-HCl (Millipore 616431). After stopping the reactions plates were incubated for 30 minutes and read on a PHERAstar FS plate reader (BMG Labtech).", "units": {"IC50": "nM"}}
{"smiles": "O=C(O)CCN1CCC(CN[C@@H]2C[C@H]2c2ccccc2)(Cc2cccc(OC3CCOCC3)c2)CC1", "note": "[Example 36, 3-{4-({[(1R,2S)-2-phenylcyclopropyl]amino}methyl)-4-[3-(tetrahydro-2H-pyran-4-yloxy)benzyl]piperidin-1-yl}propanoic Acid]", "IC50": "< 100"}
{"smiles": "O=C(O)CCN1CCC(CN[C@@H]2C[C@H]2c2ccccc2)(COc2ccccc2F)CC1", "note": "[Example 37, 3-[4-[(2-fluorophenoxy)methyl]-4-({[(1R,2S)-2-phenylcyclopropyl]amino}methyl)piperidin-1-yl]propanoic Acid]", "IC50": "< 100"}
{"smiles": "O=C(O)CCN1CCC(CN[C@@H]2C[C@H]2c2ccccc2)(COc2cccc(F)c2)CC1", "note": "[Example 38, 3-[4-[(3-fluorophenoxy)methyl]-4-({[(1R,2S)-2-phenylcyclopropyl]amino}methyl)piperidin-1-yl]propanoic Acid]", "IC50": "< 100"}
{"smiles": "O=C(O)CCN1CCC(CN[C@@H]2C[C@H]2c2ccccc2)(COc2ccc(F)cc2)CC1", "note": "[Example 39, 3-[4-[(4-fluorophenoxy)methyl]-4-({[(1R,2S)-2-phenylcyclopropyl]amino}methyl)piperidin-1-yl]propanoic Acid]", "IC50": "< 100"}
{"smiles": "O=C(O)CCN1CCC(CN[C@@H]2C[C@H]2c2ccccc2)(COCc2ccccc2)CC1", "note": "[Example 40, 3-[4-[(benzyloxy)methyl]-4-({[(1R,2S)-2-phenylcyclopropyl]amino}methyl)piperidin-1-yl]propanoic Acid]", "IC50": "< 100"}
{"smiles": "N#Cc1ccc(CC2(CN[C@@H]3C[C@H]3c3ccccc3)CCN(CCC(=O)O)CC2)cc1", "note": "[Example 41, 3-[4-(4-cyanobenzyl)-4-({[(1R,2S)-2-phenylcyclopropyl]amino}methyl)piperidin-1-yl]propanoic Acid]", "IC50": "< 100"}
{"smiles": "N#Cc1ccc(CC2(CN[C@@H]3C[C@H]3c3ccccc3)CCN(CCC(=O)O)CC2)c(F)c1", "note": "[Example 42, 3-[4-(4-cyano-2-fluorobenzyl)-4-({[(1R,2S)-2-phenylcyclopropyl]amino}methyl)piperidin-1-yl]propanoic Acid]", "IC50": "< 100"}
{"smiles": "N#Cc1ccccc1OCC1(CN[C@@H]2C[C@H]2c2ccccc2)CCN(CCC(=O)O)CC1", "note": "[Example 43, 3-[4-[(2-cyanophenoxy)methyl]-4-({[(1R,2S)-2-phenylcyclopropyl]amino}methyl)piperidin-1-yl]propanoic Acid]", "IC50": "< 100"}
{"smiles": "N#Cc1ccc(OCC2(CN[C@@H]3C[C@H]3c3ccccc3)CCN(CCC(=O)O)CC2)cc1", "note": "[Example 44, 3-[4-[(4-cyanophenoxy)methyl]-4-({[(1R,2S)-2-phenylcyclopropyl]amino}methyl)piperidin-1-yl]propanoic Acid]", "IC50": "< 100"}
{"smiles": "O=C(O)CCN1CCC(CN[C@@H]2C[C@H]2c2ccccc2)(COc2ccc(F)cn2)CC1", "note": "[Example 45, 3-[4-{[(5-fluoropyridin-2-yl)oxy]methyl}-4-({[(1R,2S)-2-phenylcyclopropyl]amino}methyl)piperidin-1-yl]propanoic Acid]", "IC50": "< 100"}
{"smiles": "O=C(O)CCN1CCC(CN[C@@H]2C[C@H]2c2ccccc2)(COc2ncc(F)cn2)CC1", "note": "[Example 46, 3-[4-{[(5-fluoropyrimidin-2-yl)oxy]methyl}-4-({[(1R,2S)-2-phenylcyclopropyl]amino}methyl)piperidin-1-yl]propanoic Acid]", "IC50": "< 100"}
{"smiles": "N#Cc1cccc(OCC2(CN[C@@H]3C[C@H]3c3ccccc3)CCN(CCC(=O)O)CC2)c1", "note": "[Example 47, 3-[4-[(3-cyanophenoxy)methyl]-4-({[(1R,2S)-2-phenylcyclopropyl]amino}methyl)piperidin-1-yl]propanoic Acid]", "IC50": "< 100"}
{"smiles": "COCC1(CN[C@@H]2C[C@H]2c2ccccc2)CCN(CC(C)(C)C(=O)O)CC1", "note": "[Example 48, 3-[4-(methoxymethyl)-4-({[(1R,2S)-2-phenylcyclopropyl]amino}methyl)piperidin-1-yl]-2,2-dimethylpropanoic Acid]", "IC50": "< 100"}
{"smiles": "COCC1(CN[C@@H]2C[C@H]2c2ccccc2)CCN(C(=O)N2CCOCC2)CC1", "note": "[Example 49, (1R,2S)—N-{[4-(methoxymethyl)-1-(morpholin-4-ylcarbonyl)piperidin-4-yl]methyl}-2-phenylcyclopropanamine]", "IC50": "< 100"}
